Values quoted from earlier work as cited in US20220354806A1, “COMPOSITION FOR IMPROVING MEMORY” (BGG JAPAN CO., LTD., priority 2019, published 2022).

Legend:
[1] = after ingesting compared with before ingesting; no placebo comparison
[2] = greater than that of a vitamin E
[3] = placebo group ingesting corn oil

CC1=C(/C=C/C(C)=C/C=C/C(C)=C/C=C/C=C(C)/C=C/C=C(C)/C=C/C2=C(C)C(=O)C(O)CC2(C)C)C(C)(C)CC(O)C1=O (stereo not drawn) [astaxanthin, 3,3′-dihydroxy-β,β-carotene-4,4′-dione]
correct answer rate in the operation of the "working memory" [1]: improved
response time of all 5 operations (simple reaction, choice reaction, working memory, delayed recall, divided attention) [1]: improved
anti-oxidation effect relative to vitamin E [2]: 1000 times
improvement effect on the human cognitive function, astaxanthin group vs placebo group [3]: a significant difference of the improvement effect on the human cognitive function is not confirmed
